Results published in patent US20240254103A9, “NOVEL PYRIMIDINE DERIVATIVE, AND COMPOSITION FOR PREVENTING OR TREATING NEURODEGENERATIVE DISEASES AND CANCER, COMPRISING SAME” (WHAN IN PHARMACEUTICAL CO., LTD., priority 2020, published 2024).

Legend:
wild-type LRRK2 = target: T1, wild-type LRRK2 (Homo sapiens, UniProt Q5S007); experiment: Inhibitory activity against LRRK2: competition binding to ligand-affinity beads, DNA-tagged kinase quantitated by qPCR; settings: % of ctrl; for remaining binding at 0.1 µM: 100 nM compound, read-out: Remaining kinase activity(%) at 100 nM LRRK2(WT); for remaining binding at 0.01 µM: 10 nM compound, read-out: LRRK2(WT) Remaining kinase activity(%) at 10 nM; for remaining binding at 0.05 µM: 50 nM compound, read-out: LRRK2(WT) Remaining kinase activity(%) at 50 nM
T1 construct: DNA tag for qPCR detection (not a peptide; the protein part that carries it is not described); made in house; host or cells: HEK 293 cells (the same paragraph also describes T7 phage grown in E. coli BL21)
T1 sequence (Q5S007 970-2527): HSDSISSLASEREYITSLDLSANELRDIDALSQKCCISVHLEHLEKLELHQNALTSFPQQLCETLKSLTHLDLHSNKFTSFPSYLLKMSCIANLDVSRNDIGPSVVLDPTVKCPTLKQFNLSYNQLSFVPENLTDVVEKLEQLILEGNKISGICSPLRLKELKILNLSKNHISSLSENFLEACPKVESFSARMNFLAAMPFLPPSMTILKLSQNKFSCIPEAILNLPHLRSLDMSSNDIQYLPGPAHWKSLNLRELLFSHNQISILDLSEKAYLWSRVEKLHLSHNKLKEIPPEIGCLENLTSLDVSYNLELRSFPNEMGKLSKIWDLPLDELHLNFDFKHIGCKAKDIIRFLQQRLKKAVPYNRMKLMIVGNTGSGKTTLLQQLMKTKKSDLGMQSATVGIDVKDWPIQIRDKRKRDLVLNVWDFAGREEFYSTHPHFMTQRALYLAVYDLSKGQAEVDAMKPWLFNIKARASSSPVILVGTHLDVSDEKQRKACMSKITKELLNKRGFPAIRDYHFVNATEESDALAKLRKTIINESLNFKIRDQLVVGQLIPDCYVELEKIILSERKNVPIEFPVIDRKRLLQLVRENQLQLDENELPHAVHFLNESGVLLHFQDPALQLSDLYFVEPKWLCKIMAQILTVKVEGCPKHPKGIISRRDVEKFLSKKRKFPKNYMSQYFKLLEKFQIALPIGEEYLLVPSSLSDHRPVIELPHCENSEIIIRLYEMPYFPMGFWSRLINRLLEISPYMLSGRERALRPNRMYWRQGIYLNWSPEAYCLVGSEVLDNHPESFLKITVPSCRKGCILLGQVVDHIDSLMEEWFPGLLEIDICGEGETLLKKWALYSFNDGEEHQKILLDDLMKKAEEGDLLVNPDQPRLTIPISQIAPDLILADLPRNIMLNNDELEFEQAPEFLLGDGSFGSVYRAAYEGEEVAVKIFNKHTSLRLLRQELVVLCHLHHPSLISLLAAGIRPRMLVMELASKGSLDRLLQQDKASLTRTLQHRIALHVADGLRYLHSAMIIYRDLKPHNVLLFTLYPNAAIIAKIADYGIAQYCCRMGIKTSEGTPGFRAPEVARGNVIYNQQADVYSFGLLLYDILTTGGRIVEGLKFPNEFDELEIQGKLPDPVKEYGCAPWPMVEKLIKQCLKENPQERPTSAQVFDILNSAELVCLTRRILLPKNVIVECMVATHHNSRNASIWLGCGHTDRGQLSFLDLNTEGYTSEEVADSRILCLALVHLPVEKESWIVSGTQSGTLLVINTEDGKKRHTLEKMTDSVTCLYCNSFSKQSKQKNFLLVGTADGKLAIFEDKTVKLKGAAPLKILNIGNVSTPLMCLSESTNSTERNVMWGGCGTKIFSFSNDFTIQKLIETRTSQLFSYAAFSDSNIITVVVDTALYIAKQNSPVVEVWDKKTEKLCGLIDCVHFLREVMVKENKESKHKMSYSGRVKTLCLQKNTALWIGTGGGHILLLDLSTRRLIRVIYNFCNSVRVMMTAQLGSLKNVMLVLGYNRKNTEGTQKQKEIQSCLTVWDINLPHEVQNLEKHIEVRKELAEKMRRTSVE
In short: (§1)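 Human LRRK2 H970–E2527, wild type or G2019S, was expressed as DNA-tagged kinase (T7 phage in E. coli or HEK293) and competed for 1 h against a biotinylated ligand on streptavidin beads. Bound kinase was eluted with 0.5 µM free ligand and quantified by qPCR. Values are % of control at 100 nM (both forms) and at 10 and 50 nM (wild type).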

mutant LRRK2 (G2019S) = target: T2, mutant LRRK2 (G2019S) (Homo sapiens, UniProt Q5S007, G2019S); experiment: as above; settings: 100 nM compound; % of ctrl; read-out: Remaining kinase activity(%) at 100 nM LRRK2(G2019Smutant)
T2 construct: DNA tag for qPCR detection (not a peptide; the protein part that carries it is not described); made in house; host or cells: HEK 293 cells (the same paragraph also describes T7 phage grown in E. coli BL21)
T2 sequence (Q5S007 970-2527 G2019S): as the sequence (Q5S007 970-2527) above, with G1050S counted along it
In short: as §1

SMILES | remaining binding at 0.1 µM (wild-type LRRK2) | remaining binding at 0.1 µM (mutant LRRK2 (G2019S)) | remaining binding at 0.01 µM (wild-type LRRK2) | remaining binding at 0.05 µM (wild-type LRRK2)
COc1cc(C(=O)N2CCOCC2)ccc1Nc1ncc(Cl)c(-c2ccccc2)n1 [Comparative Compound 1, (4-((5-chloro-4-phenylpyrimidin-2-yl)amino)-3-methoxyphenyl)(morpholino)methanone, reference compound] | ≥ 50% | ≥ 50% |  | 
COc1cc(C(=O)N2CCOCC2)ccc1Nc1ncc(Cl)c(-c2cccnc2)n1 [Comparative Compound 2, (4-((5-chloro-4-(pyridin-3-yl)pyrimidin-2-yl)amino)-3-methoxyphenyl) (morpholino)methanone, reference compound] | ≥ 50% | ≥ 50% |  | 
COc1cc(C(=O)N2CCOCC2)ccc1Nc1ncc(Cl)c(-c2cccc([N+](=O)[O-])c2)n1 [Comparative Compound 3, (4-((5-chloro-4-(3-nitrophenyl)pyrimidin-2-yl)amino) -3-methoxyphenyl)(morpholino)methanone, reference compound] | ≥ 50% | ≥ 50% |  | 
COc1cc(C(=O)N2CCOCC2)ccc1Nc1ncc(Cl)c(-c2cnn(C)c2)n1 [Compound 1, (4-((5-chloro-4-(1-methyl-1H-pyrazol-4-yl)pyrimidin-2-yl)amino)-3-methoxyphenyl)(morpholino)methanone] | < 30% | < 30% |  | 
COc1cc(C(=O)N2CCC(N3CCOCC3)CC2)ccc1Nc1ncc(Cl)c(-c2cnn(C)c2)n1 [Compound 2, (4-((5-chloro-4-(1-methyl-1H-pyrazol-4-yl)pyrimidin-2-yl)amino)-3-methoxyphenyl) (4-morpholinopiperidin-1-yl)methanone] | < 10% | < 10% |  | 
COc1cc(C(=O)N2CCOCC2)ccc1Nc1ncc(Cl)c(-c2cnn(CCO)c2)n1 [Compound 4, (4-((5-chloro-4-(1-(2-hydroxyethyl)-1H-pyrazol-4-yl)pyrimidin-2-yl)amino)-3-methoxyphenyl)(morpholino)methanone] | < 30% | < 30% |  | 
COc1cc(C(=O)N2CCOCC2)ccc1Nc1ncc(Cl)c(-c2cnn(CCC#N)c2)n1 [Compound 5, 3-(4-(5-chloro-2-((2-methoxy-4-(morpholine-4-carbonyl)phenyl)amino)pyrimidin-4-yl)-1H-pyrazol-1-yl)propanenitrile] | < 10% | < 10% |  | 
COc1cc(C(=O)N2CCOCC2)ccc1Nc1ncc(Cl)c(-c2cnn(CC#N)c2)n1 [Compound 6, 2-(4-(5-chloro-2-((2-methoxy-4-(morpholine-4-carbonyl)phenyl)amino)pyrimidin-4-yl)-1H-pyrazol-1-yl)acetonitrile] | < 50% | < 30% |  | 
COc1cc(C(=O)N2CCOCC2)ccc1Nc1ncc(Cl)c(-c2cnn(C(C)CC#N)c2)n1 (stereo not drawn) [Compound 7, 3-(4-(5-chloro-2-((2-methoxy-4-(morpholine-4-carbonyl)phenyl)amino)pyrimidin-4-yl)-1H-pyrazol-1-yl)butanenitrile] | < 10% | < 10% |  | 
COc1cc(C(=O)N2CCOCC2)ccc1Nc1ncc(Cl)c(-c2cnn(S(C)(=O)=O)c2)n1 [Compound 10, (4-((5-chloro-4-(1-(methylsulfonyl)-1H-pyrazol-4-yl)pyrimidin-2-yl)amino)-3-methoxyphenyl)(morpholino)methanone] | < 30% | < 10% |  | 
COc1cc(C(=O)N2CCOCC2)ccc1Nc1ncc(Cl)c(-c2cnn(C(F)F)c2)n1 [Compound 15, (4-((5-chloro-4-(1-(difluoromethyl)-1H-pyrazol-4-yl)pyrimidin-2-yl)amino)-3-methoxyphenyl)(morpholino)methanone] | < 50% | < 30% |  | 
COCn1cc(-c2nc(Nc3ccc(C(=O)N4CCOCC4)cc3OC)ncc2Cl)cn1 [Compound 16, (4-((5-chloro-4-(1-(methoxymethyl)-1H-pyrazol-4-yl)pyrimidin-2-yl)amino)-3-methoxyphenyl)(morpholino)methanone] | < 30% | < 10% |  | 
COc1ccc(Cn2cc(-c3nc(Nc4ccc(C(=O)N5CCOCC5)cc4OC)ncc3Cl)cn2)cc1 [Compound 17, (4-((5-chloro-4-(1-(4-methoxybenzyl)-1H-pyrazol-4-yl)pyrimidin-2-yl)amino)-3-methoxyphenyl)(morpholino)methanone] | < 30% | < 50% |  | 
COc1cc(C(=O)N2CCOCC2)ccc1Nc1ncc(Cl)c(-c2cn[nH]c2)n1 [Compound 18, (4-((5-chloro-4-(1H-pyrazol-4-yl)pyrimidin-2-yl)amino)-3-methoxyphenyl)(morpholino)methanone] | < 30% | < 30% |  | 
COc1cc(C(=O)N2CCC(N3CCN(C)CC3)CC2)ccc1Nc1ncc(Cl)c(-c2cnn(C)c2)n1 [Compound 19, (4-((5-chloro-4-(1-methyl-1H-pyrazol-4-yl)pyrimidin-2-yl)amino)-3-methoxyphenyl)(4-(4-methylpiperazin-1-yl)piperidin-1-yl)methanone] | < 10% | < 10% |  | 
COc1cc(C(=O)NCCS(C)(=O)=O)ccc1Nc1ncc(Cl)c(-c2cnn(C(C)C)c2)n1 [Compound 192, 4-((5-chloro-4-(1-isopropyl-1H-pyrazol-4-yl)pyrimidin-2-yl)amino)-3-methoxy-N-(2-(methylsulfonyl)ethyl)benzamide] |  |  | ≥ 50% | < 30%
COc1cc(C(=O)NCCCn2ccnc2)ccc1Nc1ncc(Cl)c(-c2cnn(C(C)C)c2)n1 [Compound 197, N-(3-(1H-imidazol-1-yl)propyl)-4-((5-chloro-4-(1-isopropyl-1H-pyrazol-4-yl)pyrimidin-2-yl)amino)-3-methoxybenzamide] |  |  | ≥ 50% | < 50%
COc1cc(C(=O)NCC(OC)OC)ccc1Nc1ncc(Cl)c(-c2cnn(C(C)C)c2)n1 [Compound 198, 4-((5-chloro-4-(1-isopropyl-1H-pyrazol-4-yl)pyrimidin-2-yl)amino)-N-(2,2-dimethoxyethyl)-3-methoxybenzamide] |  |  | ≥ 50% | < 50%
COC(=O)[C@@H]1CCCN1C(=O)c1ccc(Nc2ncc(Cl)c(-c3cnn(C(C)C)c3)n2)c(OC)c1 [Compound 200, methyl (4-((5-chloro-4-(1-isopropyl-1H-pyrazol-4-yl)pyrimidin-2-yl)amino)-3-methoxybenzoyl)-L-prolinate] |  |  | ≥ 50% | < 50%
CCN(C)C(=O)c1ccc(Nc2ncc(Cl)c(-c3cnn(C(C)C)c3)n2)c(OC)c1 [Compound 202, 4-((5-chloro-4-(1-isopropyl-1H-pyrazol-4-yl)pyrimidin-2-yl)amino)-N-ethyl-3-methoxy-N-methylbenzamide] |  |  | ≥ 50% | < 50%
COc1ccc(CNC(=O)c2ccc(Nc3ncc(Cl)c(-c4cnn(C(C)C)c4)n3)c(OC)c2)cc1 [Compound 203, 4-((5-chloro-4-(1-isopropyl-1H-pyrazol-4-yl)pyrimidin-2-yl)amino)-3-methoxy-N-(4-methoxybenzyl)benzamide] |  |  | ≥ 50% | < 50%
COc1cc(C(=O)Nc2cc(C)c(OC)c(C)c2)ccc1Nc1ncc(Cl)c(-c2cnn(C(C)C)c2)n1 [Compound 204, 4-((5-chloro-4-(1-isopropyl-1H-pyrazol-4-yl)pyrimidin-2-yl)amino)-3-methoxy-N-(4-methoxy-3,5-dimethylphenyl)benzamide] |  |  | ≥ 50% | < 50%
COc1cc(C(=O)NCc2cccc(N)c2)ccc1Nc1ncc(Cl)c(-c2cnn(C(C)C)c2)n1 [Compound 205, N-(3-aminobenzyl)-4-((5-chloro-4-(1-isopropyl-1H-pyrazol-4-yl)pyrimidin-2-yl)amino)-3-methoxybenzamide] |  |  | ≥ 50% | < 50%
CCN(C)C1CCN(C(=O)c2ccc(Nc3ncc(Cl)c(-c4cnn(C(C)C)c4)n3)c(OC)c2)CC1 [Compound 210, (4-((5-chloro-4-(1-isopropyl-1H-pyrazol-4-yl)pyrimidin-2-yl)amino)-3-methoxyphenyl)(4-(ethyl(methyl)amino)piperidin-1-yl)methanone] |  |  | < 50% | < 10%
COc1cc(C(=O)Nc2ccc3c(c2)CCN3C(C)=O)ccc1Nc1ncc(Cl)c(-c2cnn(C(C)C)c2)n1 [Compound 212, N-(1-acetylindolin-5-yl)-4-((5-chloro-4-(1-isopropyl-1H-pyrazol-4-yl)pyrimidin-2-yl)amino)-3-methoxybenzamide] |  |  | ≥ 50% | < 50%
COc1cc(C(=O)N2CCC(N3CCCC3)CC2)ccc1Nc1ncc(Cl)c(-c2cnn(C(C)C)c2)n1 [Compound 216, (4-((5-chloro-4-(1-isopropyl-1H-pyrazol-4-yl)pyrimidin-2-yl)amino)-3-methoxyphenyl)(4-(pyrrolidin-1-yl)piperidin-1-yl)methanone] |  |  | < 50% | < 10%
COc1cc(C(=O)N2CCC(N3CCCCC3)CC2)ccc1Nc1ncc(Cl)c(-c2cnn(C(C)C)c2)n1 [Compound 217, [1,4′-bipiperidin]-1′-yl(4-((5-chloro-4-(1-isopropyl-1H-pyrazol-4-yl)pyrimidin-2-yl)amino)-3-methoxyphenyl)methanone] |  |  | < 30% | < 10%
